For assay [1], the target named is D(1B) dopamine receptor (Homo sapiens) (UniProt P21918). The assay can be described thus: Positive allosteric modulator activity at human dopamine D5 receptor expressed in CHO-K1 cells assessed as fold change in dopamine Emax for beta-arrestin2 recruitment at 50 uM incubated for 90 mins by PathHunter assay relative to control. The format is cell-based. Particulars: filed as positive allosteric modulator. On the technique in general: Recruitment of arrestin is a read-out of receptor activation apart from second messengers.
Chain of D(1B) dopamine receptor (Homo sapiens) (P21918 whole entry): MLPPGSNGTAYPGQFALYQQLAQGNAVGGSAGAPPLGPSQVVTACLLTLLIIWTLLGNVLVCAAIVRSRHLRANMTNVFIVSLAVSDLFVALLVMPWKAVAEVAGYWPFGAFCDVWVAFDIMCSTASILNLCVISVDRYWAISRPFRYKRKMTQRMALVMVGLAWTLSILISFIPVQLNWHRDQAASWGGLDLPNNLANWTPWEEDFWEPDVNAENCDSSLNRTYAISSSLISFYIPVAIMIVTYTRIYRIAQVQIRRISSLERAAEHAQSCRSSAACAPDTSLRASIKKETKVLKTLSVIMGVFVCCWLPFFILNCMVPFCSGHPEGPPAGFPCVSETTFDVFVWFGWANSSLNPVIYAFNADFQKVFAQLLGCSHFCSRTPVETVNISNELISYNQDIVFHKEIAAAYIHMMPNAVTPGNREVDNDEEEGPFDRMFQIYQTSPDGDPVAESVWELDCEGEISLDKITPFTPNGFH

The target is the same in assay [2]. The assay can be described thus: Positive allosteric modulator activity at human dopamine D5 receptor expressed in CHO-K1 cells assessed as fold change in dopamine EC50 for beta-arrestin2 recruitment at 50 uM incubated for 90 mins by PathHunter assay relative to control. Format: cell-based. Particulars: filed as positive allosteric modulator.

With `Cn1c2ccccc2c(=O)c2c(=O)n(-c3ccccc3)c(C3CCCCC3)nc21`, the fold change (FC) stood at 1.5 in assay [1] and 2.84 in assay [2].
